Data as given in PMC9721424, “Novel N-methylsulfonyl-indole derivatives: biological activity and COX-2/5-LOX inhibitory effect with improved gastro protective profile and reduced cardio vascular risks” (Journal of Enzyme Inhibition and Medicinal Chemistry, 2022).
Marks after values point to notes of the source that are not given here.

Columns and labels:
DPPH free radical assay = format: biochemical; conditions: 540 nm, 30 min, relative to Trolox
Experimental: (§1) Preparation of samples was occurred at the following concentrations: Samples 3a, 4a, 5b, 5d and 5e at final concentrations of 0.5 mg/ml in methanol: DMSO 9:1 v/v. Samples 4b and 4d at final concentrations 0.025 mg/ml in methanol: DMSO 9:1 v/v, sample 5a at final concentrations 0.25 mg/ml in methanol: DMSO 9:1 v/v, Sample 4c, 5c and 4e at final concentrations 0.05 mg/ml in methanol: DMSO 9:1 v/v, sample 3b at final concentration 0.75 mg/ml methanol: DMSO 9:1 v/v. A stock solution of 100 µM concentration of Trolox, a standard used in this experiment, was prepared in methanol from which seven concentrations were prepared, including 50, 40, 30, 20, 15, 10 and 5 µM.
The DPPH (2,2-diphenyl-1-picryl-hydrazyl-hydrate) free radical assay was carried out according to the method of Boly et al. 2016[39]. Briefly, freshly prepared DPPH reagent (100 µl, 0.1% in methanol) was added to 100 µl of the sample on 96 well plates (n = 6). The reaction was incubated at room temp for 30 min in the dark. After completion of the incubation time, the reduction in DPPH colour intensity was measured at 540 nm. Data obtained was represented as means ± SD, according to the following equation, percentage inhibition = [(Average absorbance of blank – average absorbance of the test)/(Average absorbance of blank)] *100. The results were recorded using a microplate reader, FluoStar Omega.
Microsoft Excel® was used to analyse the obtained results. The IC50 values were calculated using Graph pad Prism 6® by converting the concentrations to their logarithmic value and selecting the non-linear inhibitor regression equation (log (inhibitor) vs. normalised response – variable slope equation). The methods used and the final test report (R-SO7320) were obtained from Nawah Scientific.

[1] = test system: TNF-α in RAW264.7 macrophage cells; assay: In vitro measurement of TNF-α in RAW264.7 macrophage cells (RT-qPCR); format: cell-based
Source text: Both Lipopolysaccharides (LPS) and hispidin were purchased from Sigma (Sigma-Aldrich, St. Louis, MO, USA)[40]. The foetal bovine serum (FBS) and Dulbecco’s modified Eagle’s medium (DMEM) were purchased from Hyclone (General Electric Healthcare Life Sciences, Mississauga, Canada), penicillin streptomycin (P/S) was purchased from Solarbio (Solarbio life sciences, Beijing, P. R. China). Results of all in vitro anti-inflammatory screening were obtained from the confirmatory diagnostic unit, VACSERA, Egypt.
DMEM was used to cultivate the macrophage cells RAW264.7 (Shanghai BOGO Industrial Co., Ltd., Shanghai, China), and supplemented with 10% FBS and 1% P/S (100 U/ml and […], respectively). […] They were treated with various concentrations of hispidin, then with 1 μg/ml LPS for the indicated time.
PBS (1 ml/well) was used to wash the cells in 24-well plates. […] For the experiments, CL Buffer included MgCl2 (M1028; Sigma) or RNasin Plus RNase Inhibitor (N2615; Promega). Before use, both Bio-Rad SPR and CL buffer were equilibrated to room temperature. […] Carefully, the resulting lysates were collected and either analysed immediately or stored frozen ([…]).
RT-qPCR analysis was performed in one-step SYBR Green RT-qPCR. […] A CFX96 real-time PCR instrument (Bio-Rad) was used under the following protocol: 50uC for 10 min, 95uC for 5 min, 95uC for 10 s/61uC for 15 s/72uC for 30 s.
Total RNA purified from cells was used as an RT-qPCR quantification standard.

[2] = test system: Salmonella enterica (ATCC 14028); assay: Disc diffusion antimicrobial screening, Salmonella enterica; format: cell-based; conditions: 100 µg/disc
Experimental: All compounds were screened for their antimicrobial activity at the Microbiology and Immunology Department, Faculty of Pharmacy, Beni-Suef University. The antimicrobial activity screening was carried out using the disc diffusion method, as described earlier, with some adjustments.
For each indicator microbe, a solution of half McFarland turbidity was prepared in sterile saline, followed by surface streaking of the strains on Mueller-Hinton agar with a sterile cotton swab. Then, sterile filter paper discs (5 mm diameter) preloaded with 100 µg of each compound were applied to the surface of the pre-inoculated plates. Then, the plates were chilled at 4 °C for 100 min before being incubated overnight at the proper temperature for microbial growth. Finally, the diameter of the inhibition zones around each disc was measured to evaluate the antimicrobial activity of the compounds. Ciprofloxacin was used as a standard antibacterial agent at a concentration of 20 µg/disc. Furthermore, DMSO-loaded discs were used as a negative control.

[3] = Dissolution of DPPH samples in DMSO/methanol; format: physicochemical; conditions: DPPH sample preparation, methanol: DMSO 9:1 v/v
Experimental: as §1

[4] = test system: heart function biomarkers (LDH, CK-MB, and troponin); assay: Cardiac function biomarkers in rat serum; format: in vivo, rats; conditions: 50 mg/kg/day p.o. for 2 weeks, mean ± SEM
Experimental: (§2) Eighteen rats were divided into three groups at random (6 animals in each group). The first group was given a vehicle and served as normal control. […] Ketamine (100 mg/kg) was used to anaesthetise the animals on the 15th day. Blood samples were obtained from the retro orbital, allowed to clot, centrifuged at 1000 g for 15 min, and utilised to examine heart function biomarkers (LDH, CK-MB, and troponin). The abdomen of each rat was opened, and the heart was extracted and washed in ice-cold physiological saline before being harnessed for histological investigation.

heart = assay: Histopathological examination of the heart; format: in vivo; conditions: rats, two weeks administration, H&E stain
Experimental: as §2

SMILES | DPPH test results (µM trolox equivalent/ 1mg sample ± SD) (DPPH free radical assay) | TNF-α fold change [1] | antibacterial activity against Salmonella enterica [2] | solubility of sample in DMSO and methanol [3] | CK-MB [4] | LDH [4] | Troponin I [4] | heart histopathology finding (heart)
COc1ccc(NC(=S)N/N=C/c2cn(S(C)(=O)=O)c3ccccc23)cc1 [Compound 4e, (E)-N-(4-Methoxyphenyl)-2{[1-(methylsulfonyl)-1H-indol 3yl]methylene}hydrazinecarbothioamide] | 161.21 ± 7.98 µM trolox equivalent/ 1mg sample | 0.26 | selective antibacterial activity |  |  |  |  | 
Cc1ccc(N2C(=O)CSC2=NN=Cc2cn(S(C)(=O)=O)c3ccccc23)cc1 [Compound 5d] |  | 0.21 |  | didn’t dissolve in DMSO nor in methanol | 0.315 ± 0.035^a,b ng/ml | 536 ± 28^a,b U/L | 0.0015 ± 0.0005^b ng/ml | little or no toxic effects on the heart
